Data on 25 compounds can be found in patent publication US11730720B2, “ALK5 inhibitors” (THERAVANCE BIOPHARMA R&D IP, LLC, priority 2018, dated 2023).

In experiment [1] the target is T1, recombinant human ALK5 (TGF-βR1) protein (Homo sapiens, UniProt P36897).
T1 construct: purchased Life Technologies PR9075A
T1 sequence (P36897 34-503): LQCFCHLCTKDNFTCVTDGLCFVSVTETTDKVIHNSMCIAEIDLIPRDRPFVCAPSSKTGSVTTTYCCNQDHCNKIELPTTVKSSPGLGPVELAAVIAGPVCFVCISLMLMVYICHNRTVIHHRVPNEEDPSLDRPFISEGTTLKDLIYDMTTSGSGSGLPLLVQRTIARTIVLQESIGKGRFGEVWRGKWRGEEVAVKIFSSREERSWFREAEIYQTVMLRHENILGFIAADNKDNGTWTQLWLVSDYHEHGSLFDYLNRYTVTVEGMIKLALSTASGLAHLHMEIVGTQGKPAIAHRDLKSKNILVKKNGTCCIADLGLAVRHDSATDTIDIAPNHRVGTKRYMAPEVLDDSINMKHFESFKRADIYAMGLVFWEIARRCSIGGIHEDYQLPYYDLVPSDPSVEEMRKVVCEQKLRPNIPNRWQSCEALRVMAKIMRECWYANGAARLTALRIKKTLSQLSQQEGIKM
The experiment can be described thus: Biochemical ALK5 (TGF-βR1) assay to measure pKi (LANCE Ultra ULight kinase assay). The conditions noted are these: apparent pKi, converted from pIC50 using the Cheng-Prusoff equation. The method in brief: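 TR-FRET kinase format: compound dose range 10 μM–25 pM equilibrated 60 min with human ALK5 and ULight-labelled topoisomerase 2α peptide in HEPES/MgCl2 buffer pH 7.5 with DTT. Reaction started with ATP (125 μM stock, 5× final), 60 min at 37° C, stopped with EDTA/Eu-anti-phospho antibody; pKi derived from pIC50 via Cheng-Prusoff.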

Experiment [2] concerns TGF-β-stimulated SMAD3 phosphorylation in BEAS-2B cells. Briefly: Cellular ALK5 potency assay, inhibition of TGF-β stimulated pSMAD3 formation in BEAS-2B cells. In kind it is cell-based. The conditions noted are these: Homo sapiens, inhibition of TGF-β (10 ng/mL) stimulated pSMAD3 formation, 1 hour compound incubation, read-out: BEAS2B pIC50 (converted). In outline: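 Phospho-SMAD3 was quantified by AlphaLISA in lysates of human lung epithelial BEAS-2B cells. Compound was added 1 h (37 °C, HEPES/BSA-supplemented HBSS) before a 30 min challenge with 10 ng/mL TGF-β. Values are pIC50 relative to stimulated cells without compound.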

Consider `Fc1ccc(Cl)cc1-c1n[nH]cc1-c1ccc2ncc(N3CCn4nc(C5=CCNC5)nc4C3)cc2n1` [Compound 1-85, 2-(3-(5-chloro-2-fluorophenyl)-1H-pyrazol-4-yl)-7-(2-(2,5-dihydro-1H-pyrrol-3-yl)-5,6-dihydro-[1,2,4]triazolo[1,5-a]pyrazin-7(8H)-yl)-1,5-naphthyridine], for which, in experiment [1], the Ki is no more than 0.0316 nM. For the same compound, the IC50 in experiment [2] was 25.1 to 158 nM.
The like results for `CN1CC=C(c2nc3n(n2)CCN(c2cnc4ccc(-c5c[nH]nc5-c5cc(Cl)ccc5F)nc4c2)C3)C1` [Compound 1-86, 2-(3-(5-chloro-2-fluorophenyl)-1H-pyrazol-4-yl)-7-(2-(1-methyl-2,5-dihydro-1H-pyrrol-3-yl)-5,6-dihydro-[1,2,4]triazolo[1,5-a]pyrazin-7(8H)-yl)-1,5-naphthyridine] were, in that order, no more than 0.0316 nM and 25.1 to 158 nM.
For the compound `CNCCn1cc(-c2cnc3ccc(-c4c[nH]nc4-c4cc(Cl)ccc4F)nc3c2)cn1` [Compound 1-87, 2-(4-(6-(3-(5-chloro-2-fluorophenyl)-1H-pyrazol-4-yl)-1,5-naphthyridin-3-yl)-1H-pyrazol-1-yl)-N-methylethan-1-amine], in experiment [1], the Ki was no more than 0.0316 nM. Also, the IC50 in experiment [2] was no more than 20 nM.
The like results for `Fc1ccc(Cl)cc1-c1n[nH]cc1-c1ccc2ncc(-c3cnn(CC4CNC4)c3)cc2n1` [Compound 1-88, 7-[1-(azetidin-3-ylmethyl)pyrazol-4-yl]-2-[3-(5-chloro-2-fluoro-phenyl)-1H-pyrazol-4-yl]-1,5-naphthyridine] were, in that order, 0.0398 to 0.316 nM and 25.1 to 158 nM.
With `NCCn1cc(-c2cnc3ccc(-c4c[nH]nc4-c4cc(Cl)ccc4F)nc3c2)cn1` [Compound 1-89, 2-[4-[6-[3-(5-chloro-2-fluoro-phenyl)-1H-pyrazol-4-yl]-1,5-naphthyridin-3-yl]pyrazol-1-yl]ethanamine], in experiment [1], the Ki is no more than 0.0316 nM. Besides, in experiment [2], the IC50 is 25.1 to 158 nM.
As for `Cn1cccc(-c2cnc3ccc(-c4c[nH]nc4-c4cc(Cl)ccc4F)nc3c2)c1=O` [Compound 1-90, 3-(6-(3-(5-chloro-2-fluorophenyl)-112-pyrazol-4-yl)-1,5-naphthyridin-3-yl)-1-methylpyridin-2(1H)-one], the Ki in experiment [1] is 0.0398 to 0.316 nM. In experiment [2], the IC50 was no more than 20 nM.
The like results for `NC1CC=C(c2cnc3ccc(-c4c[nH]nc4-c4cc(Cl)ccc4F)nc3c2)CC1` (centres unmarked) [Compound 1-91, 4-(6-(3-(5-chloro-2-fluorophenyl)-1H-pyrazol-4-yl)-1,5-naphthyridin-3-yl)cyclohex-3-en-1-amine] were, in that order, 0.0398 to 0.316 nM and no more than 20 nM.
The like results for `CNCCn1ccc(-c2cnc3ccc(-c4c[nH]nc4-c4cc(Cl)ccc4F)nc3c2)n1` [Compound 1-92, 2-[3-[6-[3-(5-chloro-2-fluoro-phenyl)-1H-pyrazol-4-yl]-1,5-naphthyridin-3-yl]pyrazol-1-yl]-N-methyl-ethanamine] were, in that order, 0.0398 to 0.316 nM and no more than 20 nM.
The like results for `Fc1ccc(Cl)cc1-c1n[nH]cc1-c1ccc2ncc(C3=CCNC3)cc2n1` [Compound 1-93, 2-[3-(5-chloro-2-fluoro-phenyl)-1H-pyrazol-4-yl]-7-(2,5-dihydro-1H-pyrrol-3-yl)-1,5-naphthyridine] were, in that order, 0.0398 to 0.316 nM and no more than 20 nM.
As for `CC(C)NCCn1cc(-c2cnc3ccc(-c4c[nH]nc4-c4cc(Cl)ccc4F)nc3c2)cn1` [Compound 1-94, N-(2-(4-(6-(3-(5-chloro-2-fluorophenyl)-1H-pyrazol-4-yl)-1,5-naphthyridin-3-yl)-1H-pyrazol-1-yl)ethyl)propan-2-amine], in experiment [1], the Ki was no more than 0.0316 nM. The IC50 in experiment [2] is 25.1 to 158 nM.
On to `Fc1ccc(Cl)cc1-c1n[nH]cc1-c1ccc2ncc(-c3cnn(CCNCc4ccccc4)c3)cc2n1` [Compound 1-95, N-benzyl-2-[4-[6-[3-(5-chloro-2-fluoro-phenyl)-1H-pyrazol-4-yl]-1,5-naphthyridin-3-yl]pyrazol-1-yl]ethanamine], for which the Ki in experiment [1] is 0.0398 to 0.316 nM. Further, the IC50 in experiment [2] was 25.1 to 158 nM.
On the same counts, the results for `CN(C)C1CC=C(c2cnc3ccc(-c4c[nH]nc4-c4cc(Cl)ccc4F)nc3c2)CC1` (centres unmarked) [Compound 1-96, 4-(6-(3-(5-chloro-2-fluorophenyl)-1H-pyrazol-4-yl)-1,5-naphthyridin-3-yl)-N,N-dimethylcyclohex-3-en-1-amine] are no more than 0.0316 nM and no more than 20 nM.
As for `CN1CC=C(c2cnc3ccc(-c4c[nH]nc4-c4cc(Cl)ccc4F)nc3c2)C1` [Compound 1-97, 2-[3-(5-chloro-2-fluoro-phenyl)-1H-pyrazol-4-yl]-7-(1-methyl-2,5-dihydropyrrol-3-yl)-1,5-naphthyridine], in experiment [1], the Ki is no more than 0.0316 nM. In addition, the IC50 in experiment [2] was no more than 20 nM.
On the same counts, the results for `NC1CCC(c2cnc3ccc(-c4c[nH]nc4-c4cc(Cl)ccc4F)nc3c2)CC1` (centres unmarked) [Compound 1-98, 4-(6-(3-(5-chloro-2-fluorophenyl)-1H-pyrazol-4-yl)-1,5-naphthyridin-3-yl)cyclohexan-1-amine] are 3.98 to 31.6 nM and 200 to 1260 nM.
The like results for `Fc1ccc(Cl)cc1-c1n[nH]cc1-c1ccc2ncc(C3CCNC3)cc2n1` (centres unmarked) [Compound 1-99, 2-[3-(5-chloro-2-fluoro-phenyl)-1H-pyrazol-4-yl]-7-pyrrolidin-3-yl-1,5-naphthyridine] were, in that order, 3.98 to 31.6 nM and 200 to 1260 nM.
As to `Fc1ccc(Cl)cc1-c1n[nH]cc1-c1ccc2ncc(-c3nc4n(n3)CCNC4)cc2n1` [Compound 1-100, 2-(3-(5-chloro-2-fluorophenyl)-1H-pyrazol-4-yl)-7-(5,6,7,8-tetrahydro-[1,2,4]triazolo[1,5-a]pyrazin-2-yl)-1,5-naphthyridine], in experiment [1], the Ki was 0.0398 to 0.316 nM. For the same compound, the IC50 in experiment [2] is 25.1 to 158 nM.
The like results for `O=Cc1cnc2ccc(-c3c[nH]nc3-c3cc(Cl)ccc3F)nc2c1` [Compound 1-101, 6-[3-(5-chloro-2-fluoro-phenyl)-1H-pyrazol-4-yl]-1,5-naphthyridine-3-carbaldehyde] were, in that order, 0.398 to 3.16 nM and no more than 20 nM.
The like results for `Oc1cnc2ccc(-c3c[nH]nc3-c3cc(Cl)ccc3F)nc2c1` [Compound 1-102, 6-[3-(5-chloro-2-fluoro-phenyl)-1H-pyrazol-4-yl]-1,5-naphthyridin-3-ol] were, in that order, 0.398 to 3.16 nM and no more than 20 nM.
As to `CCOC(=O)Cn1cc(-c2cnc3ccc(-c4c[nH]nc4-c4cc(Cl)ccc4F)nc3c2)nn1` [Compound 1-103, ethyl 2-[4-[6-[3-(5-chloro-2-fluoro-phenyl)-1H-pyrazol-4-yl]-1,5-naphthyridin-3-yl]triazol-1-yl]acetate], the Ki in experiment [1] is no more than 0.0316 nM. Besides, in experiment [2], the IC50 is 25.1 to 158 nM.
For the compound `COC(=O)c1coc(-c2cnc3ccc(-c4c[nH]nc4-c4cc(Cl)ccc4F)nc3c2)n1` [Compound 1-104, methyl 2-[6-[3-(5-chloro-2-fluoro-phenyl)-1H-pyrazol-4-yl]-1,5-naphthyridin-3-yl]oxazole-4-carboxylate], the Ki in experiment [1] is 0.398 to 3.16 nM. Further, the IC50 in experiment [2] was 25.1 to 158 nM.
The like results for `NC(=O)c1coc(-c2cnc3ccc(-c4c[nH]nc4-c4cc(Cl)ccc4F)nc3c2)n1` [Compound 1-105, 2-[6-[3-(5-chloro-2-fluoro-phenyl)-1H-pyrazol-4-yl]-1,5-naphthyridin-3-yl]oxazole-4-carboxamide] were, in that order, 0.0398 to 0.316 nM and 25.1 to 158 nM.
On the same counts, the results for `Fc1ccc(Cl)cc1-c1n[nH]cc1-c1ccc2ncc(-c3cnc4n3CCN4)cc2n1` [Compound 1-106, 2-[3-(5-chloro-2-fluoro-phenyl)-1H-pyrazol-4-yl]-7-(6,7-dihydro-5H-imidazo[1,2-a]imidazol-3-yl)-1,5-naphthyridine] are no more than 0.0316 nM and 25.1 to 158 nM.
The like results for `Fc1ccc(Cl)cc1-c1n[nH]cc1-c1ccc2ncc(-c3cnc4n3CCNC4)cc2n1` [Compound 1-107, 2-[3-(5-chloro-2-fluoro-phenyl)-1H-pyrazol-4-yl]-7-(5,6,7,8-tetrahydroimidazo[1,2-a]pyrazin-3-yl)-1,5-naphthyridine] were, in that order, 0.0398 to 0.316 nM and 25.1 to 158 nM.
`Fc1ccc(Cl)cc1-c1n[nH]cc1-c1ccc2ncc(-c3cnn4c3CNCC4)cc2n1` [Compound 1-108, 2-[3-(5-chloro-2-fluoro-phenyl)-1H-pyrazol-4-yl]-7-(4,5,6,7-tetrahydropyrazolo[1,5-a]pyrazin-3-yl)-1,5-naphthyridine]: the Ki in experiment [1] was no more than 0.0316 nM. Also, in experiment [2], the IC50 is no more than 20 nM.
Consider `Fc1ccc(Cl)cc1-c1n[nH]cc1-c1ccc2ncc(-c3nnn4c3CNCC4)cc2n1` [Compound 1-109, 2-[3-(5-chloro-2-fluoro-phenyl)-1H-pyrazol-4-yl]-7-(4,5,6,7-tetrahydrotriazolo[1,5-a]pyrazin-3-yl)-1,5-naphthyridine], for which, in experiment [1], the Ki was 0.0398 to 0.316 nM. In addition, the IC50 in experiment [2] is 25.1 to 158 nM.
